This note sets out measurements from patent publication US20260137693A1, “CANCER TREATMENTS USING MTA-COOPERATIVE PRMT5 INHIBITORS AND MAT2A INHIBITORS” (AMGEN INC., priority 2022, published 2026).

Assay [1] has as its system Pancreatic cancer cell line BxPC3. In words: Combination of Compound A and Compound B, CellTiter-Glo cell viability, BxPC3 (Example 2). In kind it is cell-based. The following applies: BxPC3, 6 days, up to 10 μM. Here is the method: (§1) Pancreatic cancer cell line BxPC3 was treated with the combination of Compound A and Compound B for 6 days. Top concentration of Compound A tested was 2 μM with a total of nine 1.9-fold dilutions and DMSO-only control. Top concentration of Compound B tested was 10 μM with a total of five 2-fold dilutions and DMSO-only control. Cell viability was measured by the CellTiter-Glo Luminescence assay. Raw luminescent values were converted to POC with the following equation: POC=100*(Treatment/Vehicle). FIG. 2 represents 1 of the 3 studies conducted. N=2 technical replicates. Mean and standard deviation graphed.
On the technique in general: ATP-based viability assays read luminescence as a measure of living cells.

Assay [2] deals with NSCLC cancer cell line CALU1. In words: Combination of Compound A and Compound B, CellTiter-Glo cell viability, CALU1 (Example 2). The conditions noted are these: CALU1, 6 days, up to 10 μM. The class given is cell-based. How it is done:
as §1, with “NSCLC cancer” for “Pancreatic cancer”, “line CALU1” for “line BxPC3”, “was 10” for “was 2”, “FIG. 1” for “FIG. 2”, “the 2” for “the 3”

Take `Nc1nc(=O)n(-c2ccccc2Cl)c2nc(C(F)(F)F)ccc12` [Compound B, 4-amino-1-(2-chlorophenyl)-7-(trifluoromethyl)pyrido[2,3-d]pyrimidin-2(1H)-one]: the “sensitivity of the model to single agent” value in assay [1] and in assay [2] was “insensitive” throughout.
